Measurements published in US9352010B2, “Treatment of HIV-1 infection and AIDS” (The J. David Gladstone Institutes, priority 2011, dated 2016).
pIC50: −log10 of the molar value.

Legend:
[1] = system: lactate dehydrogenase (LDH) release; assay: LDH release from HIV-1-infected HLACs (pyroptosis); assay type: cell-based, human; conditions: caspase inhibitors 50 μM or 100 μM, 3 days, FIG. 16C
Experimental: Caspase-1 activation can lead to a highly inflammatory form of cell death called pyroptosis. To gain insight into how CD4 T cells die, it was determined whether HIV infection in CD4 T cells induce pyroptosis cell death, as measured by lactate dehydrogenase (LDH) release. HLACs were left uninfected or infected with NL4-3 in the presence of no drugs, efavirenz, AMD3100, or caspase inhibitors (50 μM or 100 μM), as indicated in FIG. 16C. After 3 days, the supernatants were assayed for the cytosolic enzyme lactate dehydrogenase (LDH) and the LDH released by dying cells was quantified.

HLAC CD4 T-cells [2] = assay: HLAC cells overlaid on virus-producing 293T-cells, CD4 T-cell depletion; assay type: cell-based, human; conditions: 24 hours co-culture
Experimental: (§1) HLACs were infected with viruses derived from the indicated HIV proviral clones in the presence of the indicated concentrations of AZT or in the absence of drugs. Six days after infection the amount of p24^gag in the medium was determined by FLAQ assay. The amount of p24^gag in the medium after infection wash (day 0) was defined as 0%. […] Viral incorporation of endogenous A3G was measured by immunoblot analysis of purified NL4-3 and Δvif NL4-3 virions harvested from 1 ml of supernatant from infected HLACs. Doses reflect 1:10 dilutions. […] Resting or activated CFSE-labeled cells were co-cultured with cells infected with WT or Δvif NL4-3 in the presence or absence of the following drugs, AZT (5 μM), AMD3100 (250 nM), the NNRTIs Efavirenz (100 nM), and Nevirapine (1 μM), or the integration inhibitors Raltegravir (30 μM) and 118-D-24 (60 μM). Data are representative of four independent experiments performed with cells from four different donors. (E) A method to assess indirect killing in HLAC with non-infectious HIV-1 clones. Fresh human tonsil is processed into HLAC and cells are cultured in suspension. At the same time 293T-cells are transfected with 1 μg HIV-1 DNA in a 24-well plate. After 12 hours, 293T-cells are washed and overlayed with 3×10^6 HLAC cells in RPMI in the presence of the indicated drugs. Virus-producing 293T-cells directly interact with target overlaying HLAC cells. After 24 hours, the HLAC suspensions are collected from wells and analyzed by flow cytometry. […] HLAC were cultured with the indicated drugs 3 hours before co-culture with 293T-cells. Percentages are normalized to the number of viable CD4 T-cells in HLAC overlaying non-transfected 293T-cells in the presence of AZT, as depicted by (*). Error bars represent standard error of the mean of three experiments performed using cells from three different HLAC donors.

HIV-1 = assay: microbe, parasite or virus in culture
Experimental: (A and C) Concentrations of T20 that block viral infection. […] One hour before incubation with the virus, cells were pretreated with T20 or left untreated. At 12 hours, cells were washed extensively and cultured under the same conditions. On day 9, the viral concentration was determined using a p24gag FLAQ assay. The amount of p24gag accumulated in the absence of drugs by each viral clone (A) or by SKY (C) was defined as 100%. (B and D) Effect of T20 on indirect killing. CFSE-labeled cells were co-cultured with cells infected with the indicated viral clones in the presence of 5 μM AZT and the indicated concentrations of T20. After 6 days, indirect killing in the mixed cultures was assessed. The number of viable CFSE-positive CD4 T-cells co-cultured with uninfected cells in the presence of AZT was defined as 100% (not shown). To allow successful initial infection the GIA-SKY mutants were pseudotyped with the VSV-G envelope. NL4-3, WT lab-adapted virus; WEAU 16-8, primary virus; SIM, T20-resistant virus; GIA-SKY, T20-dependent virus; GIA and SKY, single-domain mutant viruses. Representative data from three independent experiments with different donors are shown. See also FIG. 5, below.
as §1

ISRE-GFP H35 cells = assay: ISRE-GFP H35 reporter cells; assay type: cell-based, rat; conditions: AZT 5 μM, efavirenz 100 nM, raltegravir 30 μM
Experimental: Hepatocyte-derived reporter ISRE-GFP H35 cells were maintained as previously described (King et al., 2007, Lab Chip 7:77-85; Patel et al., 2009, Proc Natl Acad Sci USA 106:12867-12872). For microscopic imaging, ISRE-GFP reporter H35 cells were cultured on 35 mm glass bottom culture dishes (MatTeck) and were treated with AZT (5 μM), Efavirenz (100 nM), or Raltegravir (30 μM) 12 hours before infection. Cells were then infected with 2 μg/ml of replication competent VSV-G pseudotyped NL4-3. After 48 hours incubation at 37° C., cells were fixed in 2% paraformaldehyde at 25° C. for 1 hour, washed with PBS and stained with 10 μg/ml Hoechst 33342 (Invitrogen) and 1 μg/ml 7-AAD (eBioscience) for 15 min at 25° C. Cells were washed 3 times with PBS and were analyzed with an Axio observer Z1 microscope (Zeiss) equipped with an EC Plan NEOFLUAR 10×/0.3 PHM27 objective, filter sets 38HE, 45, and 49, and an Axiocam MRM REV 3.

HLAC CD4 T-cells [3] = assay: Spinoculation of HLAC with HIV-1, CD4 T-cell depletion; assay type: cell-based, human; conditions: ≧2 μg p24gag/200 μl, within 12 hours
Experimental: (A) The spinoculation procedure. (B) Flow cytometry of viable CD4 versus CD8-T-cells in HLAC three days after spinoculation in the presence of the indicated drugs. Data represent live-gated cells, based on the forward-scatter versus side-scatter profile of the complete culture. Of note, apoptotic cells were included in the analysis of caspases activity and cytokine expression (FIG. 10E, F). Drugs concentrations: AZT 5 μM; Efavirenz 100 nM; AMD3100 250 nM; T20 10 μg/ml. The data are representative results of six independent experiments with six different donors. […] (C) Highly permissive SupT1 CD4 T leukemic cells were infected with NL4-3 and cultivated for 3 days to allow substantial infection but not syncytia formation. […] After 2.5 days of additional culture, the extent of syncytia formation in each sample was evaluated by light microscopy. […] Results are representative of three independent experiments.
Fresh HLAC cells are cultured overnight in a V-bottom 96-well plate (1×10^6 cells/well) in the presence of drugs and then chilled on ice. […] The cold temperature allows virion attachment but prevents virion fusion. HIV-coated cells are then tightly packed into a pellet by high-speed centrifugation (1200 g) for 2 hours at 4° C. This step presses the virus between cell membranes, exerting a uniform and consistent attachment. […]

Compound | LDH release from HIV-1 infected cells [1] | loss of HLAC CD4 T-cells over NL4-3-transfected 293T-cells (HLAC CD4 T-cells [2]) | pIC50 (HIV-1; Human immunodeficiency virus 1, in Homo sapiens, read-out: concentration achieving half maximal inhibitory effect) | concentration that blocks viral replication (HIV-1; NL4-3-infected and AZT-sensitive clones) [µM] | GFP expression and cell death induced by VSV-G pseudotyped HIV-1 virions (ISRE-GFP H35 cells) | CD4 T-cell killing after spinoculation with high doses of HIV-1 (HLAC CD4 T-cells [3]) | concentration at which inhibition of infection begins (HIV-1) [µg/mL] | concentration giving complete inhibition of infection (HIV-1) [µg/mL] | concentration required for complete inhibition of infection (HIV-1) [µg/mL] | inhibition of infection (HIV-1) | replication of T20-dependent mutant GIA-SKY (HIV-1)
c1cc(CN2CCCNCCNCCCNCC2)ccc1CN1CCCNCCNCCCNCC1 [AMD3100] | LDH was not released | completely blocked | – | – | – | – | – | – | – | – | –
Cc1cn([C@H]2C[C@H](N=[N+]=[N-])[C@@H](CO)O2)c(=O)[nH]c1=O [AZT] | – | occurred both in the presence and absence of AZT | 6.30 | 0.5 | induced GFP expression and cell death in the presence or absence of AZT | – | – | – | – | – | –
O=C1Nc2ccc(Cl)cc2[C@@](C#CC2CC2)(C(F)(F)F)O1 [efavirenz] | LDH was not released | completely blocked | – | – | blocked | is not prevented | – | – | – | – | –
enfuvirtide | – | – | – | – | – | prevented CD4 T-cell killing | > 2 | 0.1 | 10 | did not inhibit infection | readily replicated
